Assay results as given in ChEMBL document CHEMBL1201862, “PubChem BioAssay data set” (2004).
The source made the active and inactive calls. For most assays here, no stated cut-off is given here; in the data, actives have a measured EC50 and inactives only a lower limit.

How the values were obtained:
[1] = system: Saccharomyces cerevisiae; experiment: NALP1 inhibitor project selectivity study, Caspase-1/ASC signal blockade IC50 in S. cerevisiae (AID 488863); type: functional, organism-based
[2] = target: T1, Serine/threonine-protein phosphatase (Candida dubliniensis (strain CD36 / CBS 7987 / NCPF 3949 / NRRLY-17841) (Yeast), UniProt B9W6M3); experiment: calcineurin pathway inhibitors in yeast reporter, dose response, S. cerevisiae, CDRE-lacZ, luminescence, secondary (AID 2388); type: functional, cell-based;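 further: yeast reporter cells carrying a calcineurin-responsive lacZ construct stimulated with calcium chloride; luminescent beta-galactosidase reporter signal in whole cells rather than isolated phosphatase activity; potency for inhibition where a drop in reporter signal means calcineurin blockade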
T1 sequence (B9W6M3 whole entry): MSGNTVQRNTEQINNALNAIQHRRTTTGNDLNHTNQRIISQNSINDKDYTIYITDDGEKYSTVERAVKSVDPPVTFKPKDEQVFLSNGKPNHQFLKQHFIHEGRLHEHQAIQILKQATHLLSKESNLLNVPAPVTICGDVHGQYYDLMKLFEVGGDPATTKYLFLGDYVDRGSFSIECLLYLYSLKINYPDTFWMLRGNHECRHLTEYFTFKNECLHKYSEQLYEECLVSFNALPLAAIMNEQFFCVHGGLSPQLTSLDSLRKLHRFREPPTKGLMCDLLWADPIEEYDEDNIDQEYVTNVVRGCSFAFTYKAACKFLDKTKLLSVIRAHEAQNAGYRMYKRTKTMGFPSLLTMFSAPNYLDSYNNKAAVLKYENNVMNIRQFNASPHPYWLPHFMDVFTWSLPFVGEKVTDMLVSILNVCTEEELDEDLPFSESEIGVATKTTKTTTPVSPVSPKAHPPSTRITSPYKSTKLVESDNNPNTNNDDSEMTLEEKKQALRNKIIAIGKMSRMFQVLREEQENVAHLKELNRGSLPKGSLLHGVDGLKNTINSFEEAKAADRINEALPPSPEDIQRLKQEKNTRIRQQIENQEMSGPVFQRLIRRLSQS

[3] = target: NACHT, LRR and PYD domains-containing protein 1 (Homo sapiens, UniProt Q9C000); experiment: NALP1 inhibitors in yeast, dose response, luminescent (AID 488860); type: functional
[4] = target: ATP-dependent molecular chaperone HSP82 (Candida albicans (strain WO-1) (Yeast), UniProt C4YTQ8); experiment: loss of DOC-induced GRE-beta-galactosidase reporter signal, dose response, Hsp90 inhibitor project, S. cerevisiae, luminescence (AID 2400); type: functional, cell-based;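 further: beta-galactosidase luminescence from glucocorticoid response element reporter as proxy for Hsp90 function; inhibitor potency where signal loss means Hsp90 inhibition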
[5] = NIH-3T3 fibroblast cytotoxicity, dose response, cytotoxicity control, cell-based, fluorescence, Alamar Blue, secondary assay (AID 2327); type: functional;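 further: NIH-3T3 mouse fibroblasts cultured with fluconazole at 8 µg/mL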
[6] = C. albicans growth with fluconazole, confirmation, fluorescence, retest (AID 2467); type: functional, cell-based
[7] = target: T2, Alkaline phosphatase, tissue-nonspecific isozyme (Homo sapiens, UniProt P05186); experiment: TNAP enzyme activators, dose response, selectivity assay for human IAP activator project, biochemical, TNAP isozyme, human IAP uHTS hits (AID 488886); type: functional;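 further: potency of compounds raising TNAP activity as a selectivity check on IAP activators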
T2 sequence (P05186 whole entry): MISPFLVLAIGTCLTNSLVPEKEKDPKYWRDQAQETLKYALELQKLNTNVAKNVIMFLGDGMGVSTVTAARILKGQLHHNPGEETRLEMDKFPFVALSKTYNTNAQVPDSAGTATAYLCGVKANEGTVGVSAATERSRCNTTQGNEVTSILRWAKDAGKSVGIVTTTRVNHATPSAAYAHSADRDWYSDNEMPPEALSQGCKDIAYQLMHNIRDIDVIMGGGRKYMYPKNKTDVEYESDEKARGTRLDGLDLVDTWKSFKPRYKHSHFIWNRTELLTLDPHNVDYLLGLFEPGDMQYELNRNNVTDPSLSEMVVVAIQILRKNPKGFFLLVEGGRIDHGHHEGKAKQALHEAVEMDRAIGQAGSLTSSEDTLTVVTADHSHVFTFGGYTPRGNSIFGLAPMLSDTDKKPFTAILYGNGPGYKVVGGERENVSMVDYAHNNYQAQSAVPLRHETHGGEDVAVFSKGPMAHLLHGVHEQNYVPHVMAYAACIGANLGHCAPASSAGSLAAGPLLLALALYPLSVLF

[8] = system: Streptococcus sp. 'group A'; experiment: growth inhibition of control SK(-) GAS strain, dose response, counter-screen for streptokinase expression inhibitor project, luminescence, kanamycin, BacTiterGlo, confirmation (AID 1900); type: functional, organism-based
[9] = target: T3, Intestinal-type alkaline phosphatase (Homo sapiens, UniProt P09923); experiment: human IAP activators, dose response, biochemical, luminescent, uHTS hits, set 2 (AID 488817); type: functional;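 further: potency of activators that raise enzyme activity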
[10] = target: T3, Intestinal-type alkaline phosphatase; experiment: human intestinal alkaline phosphatase activators, dose response, biochemical, luminescence, uHTS hits (AID 463120); type: functional
[11] = system: Streptococcus; experiment: Group A Streptococcus viability loss, dose response, counter-screen for streptokinase expression inhibitor project, luminescence, BacTiterGlo (AID 1915); type: functional, organism-based;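 further: potency for reduction of bacterial viability or growth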
[12] = target: Intestinal-type alkaline phosphatase (Mus musculus, UniProt P24822); experiment: PubChem AID 488875; type: functional
[13] = target: Nonstructural protein 1 (Influenza A virus, UniProt Q194T2); type: functional, Influenza A virus (A/California/07/2009(H1N1))
[14] = target: NACHT, LRR and PYD domains-containing protein 3 (Homo sapiens, UniProt Q96P20); experiment: NALP3 inhibitors in yeast, dose response, luminescent (AID 488799); type: functional
[15] = target: T4, Caspase-3 (Homo sapiens, UniProt P42574); experiment: procaspase-3 activation potency of dual hits, dose response, counter-screen for dual procaspase-3/7 activator project, biochemical, absorbance, PC-3 D3A mutant (AID 504328)
T4 sequence (P42574 whole entry): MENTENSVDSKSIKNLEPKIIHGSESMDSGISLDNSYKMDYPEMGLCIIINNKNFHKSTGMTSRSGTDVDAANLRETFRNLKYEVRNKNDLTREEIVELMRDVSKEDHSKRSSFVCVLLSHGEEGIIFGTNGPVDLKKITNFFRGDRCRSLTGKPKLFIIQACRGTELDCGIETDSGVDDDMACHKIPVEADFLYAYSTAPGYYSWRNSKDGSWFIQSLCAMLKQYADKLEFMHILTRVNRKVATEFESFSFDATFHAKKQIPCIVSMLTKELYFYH

[16] = target: Caspase-7 (Homo sapiens, UniProt P55210); experiment: procaspase-7 activators, dose response, dual procaspase-3/-7 activator project, biochemical, absorbance, human (AID 504330)

T3 sequence (P09923 whole entry): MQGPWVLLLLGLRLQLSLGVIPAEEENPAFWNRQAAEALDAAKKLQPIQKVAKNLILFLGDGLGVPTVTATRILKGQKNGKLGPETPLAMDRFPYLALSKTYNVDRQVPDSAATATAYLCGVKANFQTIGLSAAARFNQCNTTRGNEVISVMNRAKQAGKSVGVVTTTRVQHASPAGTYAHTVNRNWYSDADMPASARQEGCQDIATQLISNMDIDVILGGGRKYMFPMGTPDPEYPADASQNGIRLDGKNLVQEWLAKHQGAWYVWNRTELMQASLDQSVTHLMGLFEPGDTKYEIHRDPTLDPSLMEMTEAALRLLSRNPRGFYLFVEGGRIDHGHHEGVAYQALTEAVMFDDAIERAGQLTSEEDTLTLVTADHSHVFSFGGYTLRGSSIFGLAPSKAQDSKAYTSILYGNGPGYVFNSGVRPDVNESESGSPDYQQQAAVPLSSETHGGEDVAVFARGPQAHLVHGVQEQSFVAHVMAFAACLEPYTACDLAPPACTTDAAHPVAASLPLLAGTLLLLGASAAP
Chain of Intestinal-type alkaline phosphatase (Mus musculus, UniProt P24822) (P24822 whole entry): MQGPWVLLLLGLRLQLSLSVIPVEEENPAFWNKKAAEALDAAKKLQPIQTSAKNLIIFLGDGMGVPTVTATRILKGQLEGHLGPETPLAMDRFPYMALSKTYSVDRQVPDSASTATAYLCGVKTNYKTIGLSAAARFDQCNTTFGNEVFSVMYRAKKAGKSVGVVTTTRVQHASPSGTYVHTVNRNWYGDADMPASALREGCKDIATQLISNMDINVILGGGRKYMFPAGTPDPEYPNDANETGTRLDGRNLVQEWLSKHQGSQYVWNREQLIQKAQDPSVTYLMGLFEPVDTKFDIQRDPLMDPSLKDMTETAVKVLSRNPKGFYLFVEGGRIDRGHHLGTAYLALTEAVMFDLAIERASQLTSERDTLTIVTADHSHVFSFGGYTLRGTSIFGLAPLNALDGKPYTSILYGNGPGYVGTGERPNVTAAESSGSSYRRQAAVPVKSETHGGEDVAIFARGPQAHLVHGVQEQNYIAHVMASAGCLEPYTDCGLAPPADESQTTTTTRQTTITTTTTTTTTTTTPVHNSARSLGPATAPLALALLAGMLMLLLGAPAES
Chain of NACHT, LRR and PYD domains-containing protein 3 (Q96P20 whole entry, the tested form may be a part): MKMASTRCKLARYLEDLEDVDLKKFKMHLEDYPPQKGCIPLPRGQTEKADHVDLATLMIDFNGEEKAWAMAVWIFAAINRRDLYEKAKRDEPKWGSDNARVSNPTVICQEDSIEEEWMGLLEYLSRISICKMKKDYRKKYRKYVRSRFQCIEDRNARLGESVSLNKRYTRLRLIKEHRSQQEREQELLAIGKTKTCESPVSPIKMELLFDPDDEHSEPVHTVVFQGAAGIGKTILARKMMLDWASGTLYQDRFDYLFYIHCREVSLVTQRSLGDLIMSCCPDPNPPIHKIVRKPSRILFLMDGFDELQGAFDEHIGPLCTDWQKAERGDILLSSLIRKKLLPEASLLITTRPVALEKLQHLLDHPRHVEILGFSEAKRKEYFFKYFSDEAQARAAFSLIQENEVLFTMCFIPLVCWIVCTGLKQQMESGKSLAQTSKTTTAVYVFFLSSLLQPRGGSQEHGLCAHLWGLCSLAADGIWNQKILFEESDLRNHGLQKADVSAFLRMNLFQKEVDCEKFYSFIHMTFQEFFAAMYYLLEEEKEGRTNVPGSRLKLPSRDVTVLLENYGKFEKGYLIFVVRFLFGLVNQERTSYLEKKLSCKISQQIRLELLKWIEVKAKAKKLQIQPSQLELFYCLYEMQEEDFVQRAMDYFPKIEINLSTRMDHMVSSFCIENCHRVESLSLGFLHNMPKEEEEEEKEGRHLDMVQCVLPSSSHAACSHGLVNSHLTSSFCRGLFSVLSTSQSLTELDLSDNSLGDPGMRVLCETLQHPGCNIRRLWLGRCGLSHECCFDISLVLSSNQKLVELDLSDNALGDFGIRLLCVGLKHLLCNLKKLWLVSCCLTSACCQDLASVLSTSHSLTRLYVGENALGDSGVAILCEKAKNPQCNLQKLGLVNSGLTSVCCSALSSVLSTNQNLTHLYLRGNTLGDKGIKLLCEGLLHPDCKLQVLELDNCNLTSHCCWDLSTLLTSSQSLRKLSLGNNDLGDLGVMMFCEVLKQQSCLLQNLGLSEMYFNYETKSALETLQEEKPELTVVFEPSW
Chain of Nonstructural protein 1 (Q194T2 whole entry, the tested form may be a part): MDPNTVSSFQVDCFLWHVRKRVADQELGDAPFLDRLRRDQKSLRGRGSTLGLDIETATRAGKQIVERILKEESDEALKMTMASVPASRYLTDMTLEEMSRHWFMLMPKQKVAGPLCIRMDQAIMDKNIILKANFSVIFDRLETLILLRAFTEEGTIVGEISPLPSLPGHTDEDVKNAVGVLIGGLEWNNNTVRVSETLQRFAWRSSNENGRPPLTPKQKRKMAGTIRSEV
Chain of ATP-dependent molecular chaperone HSP82 (C4YTQ8 whole entry): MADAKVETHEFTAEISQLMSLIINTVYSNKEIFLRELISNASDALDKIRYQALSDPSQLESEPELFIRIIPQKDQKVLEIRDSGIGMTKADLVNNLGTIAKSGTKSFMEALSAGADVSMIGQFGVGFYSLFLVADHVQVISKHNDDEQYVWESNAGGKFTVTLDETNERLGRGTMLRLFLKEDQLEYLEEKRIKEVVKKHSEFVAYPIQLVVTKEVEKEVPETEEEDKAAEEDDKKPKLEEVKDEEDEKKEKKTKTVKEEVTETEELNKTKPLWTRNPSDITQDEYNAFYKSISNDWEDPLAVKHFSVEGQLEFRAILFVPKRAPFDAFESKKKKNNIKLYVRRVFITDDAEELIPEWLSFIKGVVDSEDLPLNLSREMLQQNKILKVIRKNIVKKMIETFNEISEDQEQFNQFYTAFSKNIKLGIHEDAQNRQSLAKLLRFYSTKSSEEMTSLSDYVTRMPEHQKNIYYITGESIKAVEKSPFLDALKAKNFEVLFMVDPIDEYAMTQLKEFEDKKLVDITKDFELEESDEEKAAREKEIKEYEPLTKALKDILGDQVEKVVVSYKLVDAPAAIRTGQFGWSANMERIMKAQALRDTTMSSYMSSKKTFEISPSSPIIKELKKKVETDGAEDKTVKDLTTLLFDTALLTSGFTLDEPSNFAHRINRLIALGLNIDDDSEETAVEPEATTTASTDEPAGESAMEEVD
Chain of NACHT, LRR and PYD domains-containing protein 1 (Q9C000 1-1212 limits assumed): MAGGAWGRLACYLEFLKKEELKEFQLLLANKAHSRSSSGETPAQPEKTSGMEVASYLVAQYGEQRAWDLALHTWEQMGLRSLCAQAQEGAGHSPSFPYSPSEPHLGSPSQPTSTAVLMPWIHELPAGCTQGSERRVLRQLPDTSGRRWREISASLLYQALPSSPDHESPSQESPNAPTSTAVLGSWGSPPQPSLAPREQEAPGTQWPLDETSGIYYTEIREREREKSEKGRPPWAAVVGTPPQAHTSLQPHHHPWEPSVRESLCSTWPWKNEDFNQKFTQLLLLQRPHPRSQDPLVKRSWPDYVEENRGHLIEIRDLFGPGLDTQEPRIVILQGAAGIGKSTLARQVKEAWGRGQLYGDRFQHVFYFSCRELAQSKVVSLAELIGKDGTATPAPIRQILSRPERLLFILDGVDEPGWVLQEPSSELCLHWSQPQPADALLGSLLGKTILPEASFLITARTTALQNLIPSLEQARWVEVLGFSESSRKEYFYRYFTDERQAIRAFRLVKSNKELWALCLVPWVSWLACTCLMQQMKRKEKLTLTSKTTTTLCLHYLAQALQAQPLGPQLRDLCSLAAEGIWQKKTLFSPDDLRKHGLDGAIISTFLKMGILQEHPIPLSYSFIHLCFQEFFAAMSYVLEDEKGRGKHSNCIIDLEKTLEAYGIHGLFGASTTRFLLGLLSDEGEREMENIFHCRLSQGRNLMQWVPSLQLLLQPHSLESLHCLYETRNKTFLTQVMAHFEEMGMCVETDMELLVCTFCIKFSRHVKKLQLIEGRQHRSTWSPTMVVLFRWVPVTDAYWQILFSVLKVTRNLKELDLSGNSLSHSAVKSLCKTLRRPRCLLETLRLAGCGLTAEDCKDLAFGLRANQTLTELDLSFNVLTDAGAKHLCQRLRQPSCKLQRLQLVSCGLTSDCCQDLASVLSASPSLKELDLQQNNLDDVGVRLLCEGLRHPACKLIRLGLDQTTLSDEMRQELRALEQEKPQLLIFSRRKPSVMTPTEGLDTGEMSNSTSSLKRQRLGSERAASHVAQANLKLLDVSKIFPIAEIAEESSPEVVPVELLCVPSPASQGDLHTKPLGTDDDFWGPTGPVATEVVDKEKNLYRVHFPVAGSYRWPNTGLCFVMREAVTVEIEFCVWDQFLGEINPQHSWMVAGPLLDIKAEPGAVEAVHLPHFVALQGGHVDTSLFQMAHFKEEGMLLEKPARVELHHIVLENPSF
Chain of NACHT, LRR and PYD domains-containing protein 1 (Q9C000 1213-1473 limits assumed): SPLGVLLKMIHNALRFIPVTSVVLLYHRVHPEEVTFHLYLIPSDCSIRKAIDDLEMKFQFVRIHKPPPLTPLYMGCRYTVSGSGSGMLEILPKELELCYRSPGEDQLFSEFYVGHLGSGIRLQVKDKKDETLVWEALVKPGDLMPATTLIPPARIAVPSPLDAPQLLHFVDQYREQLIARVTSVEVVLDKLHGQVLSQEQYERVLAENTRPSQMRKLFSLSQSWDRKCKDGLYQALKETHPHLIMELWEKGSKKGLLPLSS

Structure (SMILES): Cc1cc2ccccn2c1C(C[N+](=O)[O-])c1c(F)cccc1Cl (stereo unspecified)
- IC50 [1]: 6.44 µM (active)
- EC50 [2]: 45.4 µM (active)
- IC50 [3]: 7.92 µM (active)
- EC50 [4]: 4.47 µM (active)
- EC50 [5]: > 160 µM (inactive)
- EC50 [6]: 0.421 µM (active)

Structure (SMILES): O=C(NC(=S)NNC(=O)c1ccccc1O)c1ccc(F)cc1
- EC50 [7]: 12.4 µM (active)
- EC50 [8]: 3.21 µM (active)
- EC50 [9]: 12.2 µM (active)
- EC50 [10]: 8.25 µM (active)
- EC50 [11]: 7.74 µM (active)
- EC50 [12]: > 100 µM (inactive)
- IC50 [13]: 12.2 µM (active)
- IC50 [14]: 7.94 µM (active)

Structure (SMILES): COc1ccc2c(c1OC)C(=O)OC2CC(=O)c1ccc(N(C)C)cc1 (stereo unspecified)
- EC50 [15]: > 85.3 µM (inactive)
- EC50 [16]: > 85.3 µM (inactive)
